Assay results: paper PMC12508063, “Chloroindazole based estrogen receptor β ligands with favorable pharmacokinetics promote functional remyelination and visual recovery” (Scientific Reports, 2025)
“And” between values parts separate entries of the source, which are not always exact repeats. Equal entries are not always repeated.

Columns and labels:
ERβ = target: T1, ERβ (Homo sapiens, UniProt Q92731); assay: ER reporter gene assay in HEK 293 T cells (ER-luciferase reporter); type: cell-based; conditions: for Reporter gene assay raw data, ERb: ERb data block (head r19), 4 replicate columns; for ERb reporter gene assay raw data (response): four replicate columns per compound
T1 construct: expressed in transfected cells; host or cells: HEK 293 T cells

ERα = target: T2, ERα (Homo sapiens, UniProt P03372); assay: as above; type: cell-based; conditions: for Reporter gene assay raw data, ERa: 4 replicate columns
T2 construct: expressed in transfected cells; host or cells: HEK 293 T cells
T2 sequence (P03372 1-595): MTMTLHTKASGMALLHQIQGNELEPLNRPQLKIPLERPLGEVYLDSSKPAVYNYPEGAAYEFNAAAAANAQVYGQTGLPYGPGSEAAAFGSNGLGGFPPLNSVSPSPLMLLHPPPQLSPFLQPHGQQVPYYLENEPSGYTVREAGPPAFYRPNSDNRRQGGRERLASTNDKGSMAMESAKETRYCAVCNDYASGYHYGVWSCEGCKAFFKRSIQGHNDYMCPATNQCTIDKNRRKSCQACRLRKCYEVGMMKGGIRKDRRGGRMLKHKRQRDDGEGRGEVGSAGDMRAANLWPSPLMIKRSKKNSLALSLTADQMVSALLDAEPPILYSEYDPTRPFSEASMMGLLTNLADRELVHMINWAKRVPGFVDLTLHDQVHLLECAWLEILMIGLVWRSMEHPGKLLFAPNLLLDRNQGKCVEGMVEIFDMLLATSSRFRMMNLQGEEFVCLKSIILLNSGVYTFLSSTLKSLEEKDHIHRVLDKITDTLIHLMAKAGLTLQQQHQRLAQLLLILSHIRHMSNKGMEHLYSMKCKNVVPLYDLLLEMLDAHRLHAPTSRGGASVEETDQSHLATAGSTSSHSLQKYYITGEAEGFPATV

T1 sequence (Q92731 whole entry, species assumed): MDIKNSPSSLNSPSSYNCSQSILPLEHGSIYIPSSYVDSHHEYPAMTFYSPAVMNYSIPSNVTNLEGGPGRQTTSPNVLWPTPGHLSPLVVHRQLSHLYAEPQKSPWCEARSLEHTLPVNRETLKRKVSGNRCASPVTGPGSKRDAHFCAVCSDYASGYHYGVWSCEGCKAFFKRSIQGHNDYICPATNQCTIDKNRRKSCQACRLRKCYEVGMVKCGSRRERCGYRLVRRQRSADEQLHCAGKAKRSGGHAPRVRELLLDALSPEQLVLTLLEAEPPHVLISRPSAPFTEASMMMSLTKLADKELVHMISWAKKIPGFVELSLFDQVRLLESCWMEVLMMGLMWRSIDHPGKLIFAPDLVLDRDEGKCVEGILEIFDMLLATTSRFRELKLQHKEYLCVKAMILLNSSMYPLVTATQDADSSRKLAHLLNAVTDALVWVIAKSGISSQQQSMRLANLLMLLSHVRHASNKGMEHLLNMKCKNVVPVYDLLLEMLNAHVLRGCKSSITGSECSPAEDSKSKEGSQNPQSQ

Compound: C[C@]12CC[C@@H]3c4ccc(O)cc4CC[C@H]3[C@@H]1CC[C@@H]2O [Compound E2, estradiol]
- Reporter gene assay raw data, ERb (ERβ; Log M -6): 88.8232 and 101.64 and 110.514 and 90.7218
- ERb reporter gene assay raw data (response) (ERβ; Log M -6): 84.0609 and 88.7479 and 111.697 and 94.4619
- Reporter gene assay raw data, ERb (ERβ; Log M -6.47756): 97.0869 and 99.8524 and 105.457 and 96.3817
- ERb reporter gene assay raw data (response) (ERβ; Log M -6.47756): 91.3063 and 103.043 and 96.9565 and 108.694
- Reporter gene assay raw data, ERb (ERβ; Log M -6.95468): 101.657 and 108.929 and 91.071 and 98.3432
- ERb reporter gene assay raw data (response) (ERβ; Log M -6.95468): 85.5094 and 93.8773 and 82.9145 and 86.4119
- Reporter gene assay raw data, ERb (ERβ; Log M -7.4318): 88.9611 and 107.81 and 89.4793
- ERb reporter gene assay raw data (response) (ERβ; Log M -7.4318): 92.1619 and 99.8727 and 93.6976 and 98.6683
- Reporter gene assay raw data, ERb (ERβ; Log M -7.91009): 87.7241 and 103.45 and 96.1824 and 92.6694
- ERb reporter gene assay raw data (response) (ERβ; Log M -7.91009): 89.9017 and 89.3359 and 90.9076 and 106.617
- Reporter gene assay raw data, ERb (ERβ; Log M -8.3851): 90.4631 and 100.397 and 90.4263 and 91.0339
- ERb reporter gene assay raw data (response) (ERβ; Log M -8.3851): 91.9536 and 86.2134 and 78.7089 and 97.5579
- Reporter gene assay raw data, ERb (ERβ; Log M -8.86328): 79.9036 and 104.483 and 99.1546 and 93.2724
- ERb reporter gene assay raw data (response) (ERβ; Log M -8.86328): 95.1963 and 89.1365 and 87.1229 and 89.1607
- Reporter gene assay raw data, ERb (ERβ; Log M -9.34008): 95.3149 and 101.905 and 91.5426 and 83.1517
- ERb reporter gene assay raw data (response) (ERβ; Log M -9.34008): 83.69 and 95.3591 and 88.894 and 92.378
- Reporter gene assay raw data, ERb (ERβ; Log M -9.81816): 104.147 and 95.8332 and 93.5201 and 92.5995
- ERb reporter gene assay raw data (response) (ERβ; Log M -9.81816): 83.8842 and 77.8861 and 83.3564 and 89.1956
- Reporter gene assay raw data, ERb (ERβ; Log M -10.2941): 77.6845 and 76.952 and 81.0679 and 77.2912
- ERb reporter gene assay raw data (response) (ERβ; Log M -10.2941): 80.3017 and 74.375 and 74.4575 and 76.8278
- Reporter gene assay raw data, ERb (ERβ; Log M -10.7721): 31.1486 and 35.6178 and 35.7979 and 36.2215
- ERb reporter gene assay raw data (response) (ERβ; Log M -10.7721): 27.7709 and 32.5606 and 30.8658
- Reporter gene assay raw data, ERb (ERβ; Log M -11.248): 7.1742 and 11.1236 and 8.004 and 9.347
- ERb reporter gene assay raw data (response) (ERβ; Log M -11.248): 5.759 and 5.232 and 4.796 and 6.634
- ERb reporter gene assay raw data (response) (ERβ; Log M -13): -0.5566 and 0.8119 and -0.8119 and 0.5566

Compound: Oc1ccc([C@@H]2Oc3ccc(O)cc3[C@@H]3CCC[C@@H]32)cc1 [LY500307]
- Reporter gene assay raw data, ERa (ERα; Log M -6, first ERa data block (head r2)): 95.3498 and 76.8258 and 78.8468 and 79.4968
- Reporter gene assay raw data, ERa (ERα; Log M -6, second ERa data block (head r34)): 84.2897 and 88.4184 and 89.8518 and 82.7548
- Reporter gene assay raw data, ERa (ERα; Log M -6.47756, first ERa data block (head r2)): 81.0788 and 76.9627 and 81.3158 and 77.2241
- Reporter gene assay raw data, ERa (ERα; Log M -6.47756, second ERa data block (head r34)): 83.7373 and 79.8906 and 79.6354 and 82.4556
- Reporter gene assay raw data, ERa (ERα; Log M -6.95468, first ERa data block (head r2)): 64.5612 and 69.8569 and 66.3267 and 71.602
- Reporter gene assay raw data, ERa (ERα; Log M -6.95468, second ERa data block (head r34)): 71.7534 and 71.241 and 72.7885 and 70.2307
- Reporter gene assay raw data, ERa (ERα; Log M -7.4318, first ERa data block (head r2)): 51.8548 and 63.5801 and 59.7283 and 55.8203
- Reporter gene assay raw data, ERa (ERα; Log M -7.4318, second ERa data block (head r34)): 63.921 and 68.3671 and 59.0742 and 56.656
- Reporter gene assay raw data, ERa (ERα; Log M -7.91009, first ERa data block (head r2)): 45.1889 and 57.478 and 50.9227 and 51.1094
- Reporter gene assay raw data, ERa (ERα; Log M -7.91009, second ERa data block (head r34)): 50.9317 and 49.5895 and 46.336 and 52.0394
- Reporter gene assay raw data, ERa (ERα; Log M -8.3851, first ERa data block (head r2)): 49.7552 and 47.0158 and 40.3598 and 42.6852
- Reporter gene assay raw data, ERa (ERα; Log M -8.3851, second ERa data block (head r34)): 51.0127 and 45.6306 and 44.3415 and 46.4772
- Reporter gene assay raw data, ERa (ERα; Log M -8.86328, first ERa data block (head r2)): 31.993 and 35.5083 and 37.6374 and 35.7027
- Reporter gene assay raw data, ERa (ERα; Log M -8.86328, second ERa data block (head r34)): 42.4323 and 38.564 and 35.9099 and 35.545
- Reporter gene assay raw data, ERa (ERα; Log M -9.34008, first ERa data block (head r2)): 17.3101 and 15.2621 and 18.8474 and 18.6811
- Reporter gene assay raw data, ERa (ERα; Log M -9.34008, second ERa data block (head r34)): 21.5928 and 20.6886 and 16.8312 and 20.0407
- Reporter gene assay raw data, ERa (ERα; Log M -9.81816, first ERa data block (head r2)): 8.154 and 4.486 and 4.8306 and 4.983
- Reporter gene assay raw data, ERa (ERα; Log M -9.81816, second ERa data block (head r34)): 6.6406 and 6.967 and 4.962 and 7.591
- Reporter gene assay raw data, ERa (ERα; Log M -10.2941, first ERa data block (head r2)): 3.132 and 9.724 and 4.561 and 11.8118
- Reporter gene assay raw data, ERa (ERα; Log M -10.2941, second ERa data block (head r34)): 3.775 and 13.8366 and 4.292 and 12.8533
- Reporter gene assay raw data, ERa (ERα; Log M -10.7721, first ERa data block (head r2)): 1.451 and 1.5656 and -0.4526 and 1.85
- Reporter gene assay raw data, ERa (ERα; Log M -10.7721, second ERa data block (head r34)): -0.2019 and 1.235 and 0.142 and 1.333
- Reporter gene assay raw data, ERa (ERα; Log M -11.248, first ERa data block (head r2)): -0.6879 and -0.2253 and -0.584 and 0.4876
- Reporter gene assay raw data, ERa (ERα; Log M -11.248, second ERa data block (head r34)): -0.9111 and -0.3248 and 1.487 and 1.068
- ERa reporter gene assay raw data (response) (ERα; Log M -13, four replicate columns per compound): 0.8253 and -0.8253 and 1.478 and -1.478
